Measured values from patent publication US9428499B2, “Heterocyclyl compounds as MEK inhibitors” (LUPIN LIMITED, priority 2012, dated 2016).

System: ERK phosphorylation
Assay: Analysis of ERK phosphorylation (Alphascreen SureFire Phospho-ERK 1/2)
Format: cell-based, human and mouse
Settings: cells treated for 1 h; human melanoma cells, human and mouse colon cancer cells; read-out: Minimum concentration (nM) required for ≧80% inhibition of pERK
Description: This assay was carried out with human melanoma cells, human and mouse colon cancer cells. Cells were treated for 1 h with various concentrations of test compounds. ERK phosphorylation analysis was performed using the Alphascreen SureFire Phospho-ERK 1/2 Kit (Perkin Elmer), by following the manufacturer's instructions. % inhibition of ERK phosphorylation was determined as: 100−{(RFU test−RFU lysis buffer control)/(RFU vehicle treated control−RFU lysis buffer control)}×100. Percentage inhibition at concentrations of 0.01 nM, 0.03 nM, 0.1-0.9 nM, 1 nM to 3 nM, 4-100 nM, and >100 nM, for the stated examples is setworth here. The percentage inhibition at the above depicted concentrations for the compounds stated are given in the following groups.

Row | SMILES | IC80
1 | CCn1c(=O)c2c(Nc3ccc(I)cc3F)n(C)c(=O)c(C)c2n(-c2cccc(CC(=O)NC3CC3)c2)c1=O [Compound 59, N-cyclopropyl-2-(3-(3-ethyl-5-((2-fluoro-4-iodophenyl)amino)-6,8-dimethyl-2,4,7-trioxo-3,4,6,7-tetrahydropyrido[4,3-d]pyrimidin-1(2H)-yl)phenyl)acetamide] | 1 to 3 nM
2 | Cc1c(=O)n(C)c(Nc2ccc(I)cc2F)c2c(=O)n(CC(O)CO)c(=O)n(-c3cccc(C(=O)NC4CC4)c3)c12 (stereo not shown) [Compound 73, N-cyclopropyl-3-(3-(2,3-dihydroxypropyl)-5-((2-fluoro-4-iodophenyl)amino)-6,8-dimethyl-2,4,7-trioxo-3,4,6,7-tetrahydropyrido[4,3-d]pyrimidin-1 (2H)-yl)benzamide] | 4 to 100 nM
3 | Cc1c(=O)n(C)c(Nc2ccc(I)cc2F)c2c(=O)n(C)c(=O)n(-c3cccc(C(=O)NC4COC4)c3)c12 [Compound 49, 3-(5-((2-fluoro-4-iodophenyl)amino)-3,6,8-trimethyl-2,4,7-trioxo-3,4,6,7-tetra hydropyrido[4,3-d]pyrimidin-1(2H)-yl)-N-(oxetan-3-yl)benzamide] | 0.01 nM
4 | Cc1c(=O)n(C)c(Nc2ccc(I)cc2F)c2c(=O)n(C)c(=O)n(-c3cccc(C(C)(C)C(N)=O)c3)c12 [Compound 43, 2-(3-(5-((2-fluoro-4-iodophenyl)amino)-3,6,8-trimethyl-2,4,7-trioxo-3,4,6,7-tetra hydropyrido[4,3-d]pyrimidin-1(2H)-yl)phenyl)-2-methylpropanamide] | 0.1 to 0.9 nM
5 | Cc1c(=O)n(C)c(Nc2ccc(I)cc2F)c2c(=O)[nH]c(=O)n(-c3cccc(C(=O)N4CCC(O)C4)c3)c12 (stereo not shown) [Compound 22, 5-((2-fluoro-4-iodophenyl)amino)-1-(3-(3-hydroxypyrrolidine-1-carbonyl)phenyl)-6,8-dimethylpyrido[4,3-d]pyrimidine-2,4,7(1H,3H,6H)-trione] | 4 to 100 nM
6 | Cc1c(=O)n(C)c(Nc2ccc(I)cc2F)c2c(=O)n(C3CC3)c(=O)n(-c3cccc(C(O)C(N)=O)c3)c12 (stereo not shown) [Compound 32, 2-(3-(3-cyclopropyl-5-((2-fluoro-4-iodophenyl)amino)-6,8-dimethyl-2,4,7-trioxo-3,4,6,7-tetrahydropyrido[4,3-d]pyrimidin-1(2H)-yl)phenyl)-2-hydroxyacetamide] | 1 to 3 nM
7 | Cc1c(=O)n(C)c(Nc2ccc(I)cc2F)c2c(=O)n(C)c(=O)n(-c3cccc(C(=O)NC4(CO)CC4)c3)c12 [Compound 53, 3-(5-((2-fluoro-4-iodophenyl)amino)-3,6,8-trimethyl-2,4,7-trioxo-3,4,6,7-tetrahydropyrido[4,3-d]pyrimidin-1(2H)-yl)-N-(1-(hydroxymethyl)cyclopropyl)benzamide] | 4 to 100 nM
8 | Cc1c(=O)n(C)c(Nc2ccc(I)cc2F)c2c(=O)n(C)c(=O)n(-c3cccc(CCC(N)=O)c3)c12 [Compound 68, 3-(3-(5-((2-fluoro-4-iodophenyl)amino)-3,6,8-trimethyl-2,4,7-trioxo-3,4,6,7-tetrahydropyrido[4,3-d]pyrimidin-1(2H)-yl)phenyl)propanamide] | 1 to 3 nM
9 | CCn1c(=O)c2c(Nc3ccc(I)cc3F)n(C)c(=O)c(C)c2n(-c2cccc(C(=O)N3CCS(=O)(=O)CC3)c2)c1=O [Compound 66, 1-(3-(1,1-dioxidothiomorpholine-4-carbonyl)phenyl)-3-ethyl-5-((2-fluoro-4-iodophenyl)amino)-6,8-dimethylpyrido[4,3-d]pyrimidine-2,4,7(1H,3H,6H)-trione] | 0.01 nM
10 | Cc1c(=O)n(C)c(Nc2ccc(I)cc2F)c2c(=O)[nH]c(=O)n(-c3cccc(CCC(N)=O)c3)c12 [Compound 1, 3-(3-(5-((2-fluoro-4-iodophenyl)amino)-6,8-dimethyl-2,4,7-trioxo-3,4,6,7-tetrahydropyrido[4,3-d]pyrimidin-1(2H)-yl)phenyl)propanamide] | 1 to 3 nM
11 | Cc1c(=O)n(C)c(Nc2ccc(I)cc2F)c2c(=O)n(C)c(=O)n(-c3cccc([C@H](O)C(N)=O)c3)c12 [Compound 76, (S)-2-(3-(5-((2-fluoro-4-iodophenyl)amino)-3,6,8-trimethyl-2,4,7-trioxo-3,4,6,7-tetrahydropyrido[4,3-d]pyrimidin-1(2H)-yl)phenyl)-2-hydroxyacetamide] | 4 to 100 nM
12 | Cc1c(=O)n(C)c(Nc2ccc(I)cc2F)c2c(=O)n(C3CC3)c(=O)n(-c3cccc(C(=O)N4CCS(=O)(=O)CC4)c3)c12 [Compound 39, 3-cyclopropyl-1-(3-(1,1-dioxidothiomorpholine-4-carbonyl)phenyl)-5-((2-fluoro-4-iodophenyl)amino)-6,8-dimethylpyrido[4,3-d]pyrimidine-2,4,7(1H,3H,6H)-trione] | 1 to 3 nM
13 | Cc1c(=O)n(C)c(Nc2ccc(I)cc2F)c2c(=O)n(C)c(=O)n(-c3cccc(C(=O)N4CCOCC4)c3)c12 [Compound 63, 5-((2-fluoro-4-iodophenyl)amino)-3,6,8-trimethyl-1-(3-(morpholine-4-carbonyl)phenyl)pyrido[4,3-d]pyrimidine-2,4,7(1H,3H,6H)-trione] | 1 to 3 nM
14 | Cc1c(=O)n(C)c(Nc2ccc(I)cc2F)c2c(=O)n(C3CC3)c(=O)n(-c3cccc(C(C)(C)C(N)=O)c3)c12 [Compound 28, 2-(3-(3-cyclopropyl-5-((2-fluoro-4-iodophenyl)amino)-6,8-dimethyl-2,4,7-trioxo-3,4,6,7-tetrahydropyrido[4,3-d]pyrimidin-1(2H)-yl)phenyl)-2-methylpropanamide] | 0.1 to 0.9 nM
15 | CNC(=O)COc1cccc(-n2c(=O)n(C)c(=O)c3c(Nc4ccc(I)cc4F)n(C)c(=O)c(C)c32)c1 [Compound 60, 2-(3-(5-((2-fluoro-4-iodophenyl)amino)-3,6,8-trimethyl-2,4,7-trioxo-3,4,6,7-tetrahydropyrido[4,3-d]pyrimidin-1(2H)-yl)phenoxy)-N-methylacetamide] | 0.1 to 0.9 nM
16 | Cc1c(=O)n(C)c(Nc2ccc(I)cc2F)c2c(=O)n(C3CC3)c(=O)n(-c3cccc(CC(=O)NC4COC4)c3)c12 [Compound 31, 2-(3-(3-cyclopropyl-5-((2-fluoro-4-iodophenyl)amino)-6,8-dimethyl-2,4,7-trioxo-3,4,6,7-tetrahydropyrido[4,3-d]pyrimidin-1(2H)-yl)phenyl)-N-(oxetan-3-yl)acetamide] | 0.01 nM
17 | Cc1c(Nc2ccc(I)cc2F)c2c(=O)[nH]c(=O)n(-c3cccc(C(F)(F)C(N)=O)c3)c2n(C)c1=O [Compound 11, 2,2-difluoro-2-(3-(5-((2-fluoro-4-iodophenyl)amino)-6,8-dimethyl-2,4,7-trioxo-3,4,7,8-tetrahydropyrido[2,3-d]pyrimidin-1(2H)-yl)phenyl)acetamide] | 0.1 to 0.9 nM
18 | Cc1c(=O)n(C)c(Nc2ccc(I)cc2F)c2c(=O)[nH]c(=O)n(-c3cccc(C(=O)NC4(C(N)=O)CC4)c3)c12 [Compound 12, N-(1-carbamoylcyclopropyl)-3-(5-((2-fluoro-4-iodophenyl)amino)-6,8-dimethyl-2,4,7-trioxo-3,4,6,7-tetrahydropyrido[4,3-d]pyrimidin-1(2H)-yl)benzamide] | 4 to 100 nM
19 | Cc1c(=O)n(C)c(Nc2ccc(I)cc2F)c2c(=O)[nH]c(=O)n(-c3cccc(C(=O)N4CCS(=O)(=O)CC4)c3)c12 [Compound 8, 1-(3-(1,1-dioxidothiomorpholine-4-carbonyl)phenyl)-5-((2-fluoro-4-iodophenyl)amino)-6,8-dimethylpyrido[4,3-d]pyrimidine-2,4,7(1H,3H,6H)-trione] | 1 to 3 nM
20 | Cc1c(=O)n(C)c(Nc2ccc(I)cc2F)c2c(=O)[nH]c(=O)n(-c3cccc(C(O)C(N)=O)c3)c12 (stereo not shown) [Compound 14, 2-(3-(5-((2-fluoro-4-iodophenyl)amino)-6,8-dimethyl-2,4,7-trioxo-3,4,6,7-tetrahydropyrido[4,3-d]pyrimidin-1(2H)-yl)phenyl)-2-hydroxyacetamide] | 4 to 100 nM
21 | Cc1c(=O)n(C)c(Nc2ccc(I)cc2F)c2c(=O)n(C3CC3)c(=O)n(-c3cccc(CCC(N)=O)c3)c12 [Compound 34, 3-(3-(3-cyclopropyl-5-((2-fluoro-4-iodophenyl)amino)-6,8-dimethyl-2,4,7-trioxo-3,4,6,7-tetrahydropyrido[4,3-d]pyrimidin-1(2H)-yl)phenyl)propanamide] | 1 to 3 nM
22 | Cc1c(=O)n(C)c(Nc2ccc(I)cc2F)c2c(=O)[nH]c(=O)n(-c3cccc(C(=O)N4CCN(C)CC4)c3)c12 [Compound 21, 5-((2-fluoro-4-iodophenyl)amino)-6,8-dimethyl-1-(3-(4-methylpiperazine-1-carbonyl)phenyl)pyrido[4,3-d]pyrimidine-2,4,7(1H,3H,6H)-trione] | 0.1 to 0.9 nM
23 | Cc1c(=O)n(C)c(Nc2ccc(I)cc2F)c2c(=O)n(C3CC3)c(=O)n(-c3cccc(C(=O)N4CCS(=O)(=O)C4)c3)c12 [Compound 38, 3-cyclopropyl-1-(3-(1,1-dioxidothiazolidine-3-carbonyl)phenyl)-5-((2-fluoro-4-iodophenyl)amino)-6,8-dimethylpyrido[4,3-d]pyrimidine-2,4,7(1H,3H,6H)-trione] | 0.1 to 0.9 nM
24 | Cc1c(=O)n(C)c(Nc2ccc(I)cc2F)c2c(=O)n(C)c(=O)n(-c3cccc([C@@H](O)C(N)=O)c3)c12 [Compound 75, (R)-2-(3-(5-((2-fluoro-4-iodophenyl)amino)-3,6,8-trimethyl-2,4,7-trioxo-3,4,6,7-tetrahydropyrido[4,3-d]pyrimidin-1(2H)-yl)phenyl)-2-hydroxyacetamide] | 1 to 3 nM
25 | Cc1c(Nc2ccc(I)cc2F)c2c(=O)n(C3CC3)c(=O)n(-c3cccc(C(F)(F)C(N)=O)c3)c2n(C)c1=O [Compound 30, 2-(3-(3-cyclopropyl-5-((2-fluoro-4-iodophenyl)amino)-6,8-dimethyl-2,4,7-trioxo-3,4,7,8-tetrahydropyrido[2,3-d]pyrimidin-1(2H)-yl)phenyl)-2,2-difluoroacetamide] | 1 to 3 nM
